Test results taken from ChEMBL document CHEMBL1201862, “PubChem BioAssay data set” (2004).
One block for each compound: values may come before it. The source made the active and inactive calls.

Columns and labels:
SUMO-activating enzyme = SUMO-activating enzyme (Homo sapiens, UniProt Q9UBT2); assay: SUMOylation inhibitor hit validation, confirmation, SUMOylation inhibitor project, biochemical, AlphaScreen (AID 2018); format: functional
[1] = molecular target: DNA dC->dU-editing enzyme APOBEC-3G (Homo sapiens, UniProt Q9HC16); assay: Dose Response confirmation of small molecule APOBEC3G DNA Deaminase Inhibitors via a fluorescence-based single-stranded DNA deaminase assay. [Related pubchem assays (depositor defined):AID493012, AID493028]; format: functional
Caspase-3 = molecular target: T1, Caspase-3 (Homo sapiens, UniProt P42574); assay: Dose-response confirmation of uHTS inhibitor hits of Sentrin-Specific Protease 8 in a Caspase-3 Fluorescence assay.; format: functional
T1 sequence (P42574 whole entry): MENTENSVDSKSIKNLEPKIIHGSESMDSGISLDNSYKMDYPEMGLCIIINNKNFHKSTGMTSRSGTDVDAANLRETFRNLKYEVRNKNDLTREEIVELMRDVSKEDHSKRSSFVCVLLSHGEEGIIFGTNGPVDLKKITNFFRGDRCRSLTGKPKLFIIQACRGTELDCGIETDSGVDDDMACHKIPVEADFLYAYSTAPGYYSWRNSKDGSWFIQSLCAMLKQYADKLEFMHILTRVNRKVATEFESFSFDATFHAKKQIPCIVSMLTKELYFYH

[2] = molecular target: Serine/threonine-protein kinase TBK1 (Homo sapiens, UniProt Q9UHD2); assay: Navigating the Kinome. Panel member name: TBK1; format: functional
[3] = molecular target: Tyrosine-protein kinase Lck (Homo sapiens, UniProt P06239); format: functional;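 also: lck was assayed as one member of a kinase panel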
[4] = molecular target: Dual specificity protein kinase CLK4 (Homo sapiens, UniProt Q9HAZ1); format: functional
[5] = molecular target: High affinity nerve growth factor receptor (Homo sapiens, UniProt P04629); format: functional;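 also: NTRK1 tested as one member of a kinome-wide profiling panel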
Aurora kinase A = Aurora kinase A (Homo sapiens, UniProt O14965); format: functional;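 also: value from the Navigating the Kinome kinase panel profiling, panel entry STK6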
[6] = molecular target: Rho-associated protein kinase 1 (Homo sapiens, UniProt Q13464); format: functional;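 also: measured within a broad kinome-wide panel profiling many kinases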
[7] = molecular target: Tyrosine-protein kinase receptor TYRO3 (Homo sapiens, UniProt Q06418); format: functional;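 also: TYRO3 value obtained as one member of a kinome-wide profiling panel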
[8] = molecular target: Serine/threonine-protein kinase D3 (Homo sapiens, UniProt O94806); format: functional;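 also: determined within a kinase panel screen, with PRKCN as the panel member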
[9] = molecular target: Insulin-like growth factor 1 receptor (Homo sapiens, UniProt P08069); assay: Navigating the Kinome. Panel member name: IGF1R; format: functional
[10] = molecular target: Proto-oncogene tyrosine-protein kinase receptor Ret (Homo sapiens, UniProt P07949); format: functional;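 also: measured within a kinome-wide profiling panel, RET as the panel member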
[11] = molecular target: Cyclin-dependent kinase 7 (Homo sapiens, UniProt P50613); format: functional;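 also: value comes from a kinome-wide kinase profiling panel in which CDK7 is one member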
[12] = molecular target: T2, 1-phosphatidylinositol 4,5-bisphosphate phosphodiesterase beta-3 (Homo sapiens, UniProt Q01970); assay: Fluorescence-based biochemical high throughput dose response assay to identify inhibitors of phospholipase C isozymes (PLC-B3).
T2 sequence (Q01970 whole entry): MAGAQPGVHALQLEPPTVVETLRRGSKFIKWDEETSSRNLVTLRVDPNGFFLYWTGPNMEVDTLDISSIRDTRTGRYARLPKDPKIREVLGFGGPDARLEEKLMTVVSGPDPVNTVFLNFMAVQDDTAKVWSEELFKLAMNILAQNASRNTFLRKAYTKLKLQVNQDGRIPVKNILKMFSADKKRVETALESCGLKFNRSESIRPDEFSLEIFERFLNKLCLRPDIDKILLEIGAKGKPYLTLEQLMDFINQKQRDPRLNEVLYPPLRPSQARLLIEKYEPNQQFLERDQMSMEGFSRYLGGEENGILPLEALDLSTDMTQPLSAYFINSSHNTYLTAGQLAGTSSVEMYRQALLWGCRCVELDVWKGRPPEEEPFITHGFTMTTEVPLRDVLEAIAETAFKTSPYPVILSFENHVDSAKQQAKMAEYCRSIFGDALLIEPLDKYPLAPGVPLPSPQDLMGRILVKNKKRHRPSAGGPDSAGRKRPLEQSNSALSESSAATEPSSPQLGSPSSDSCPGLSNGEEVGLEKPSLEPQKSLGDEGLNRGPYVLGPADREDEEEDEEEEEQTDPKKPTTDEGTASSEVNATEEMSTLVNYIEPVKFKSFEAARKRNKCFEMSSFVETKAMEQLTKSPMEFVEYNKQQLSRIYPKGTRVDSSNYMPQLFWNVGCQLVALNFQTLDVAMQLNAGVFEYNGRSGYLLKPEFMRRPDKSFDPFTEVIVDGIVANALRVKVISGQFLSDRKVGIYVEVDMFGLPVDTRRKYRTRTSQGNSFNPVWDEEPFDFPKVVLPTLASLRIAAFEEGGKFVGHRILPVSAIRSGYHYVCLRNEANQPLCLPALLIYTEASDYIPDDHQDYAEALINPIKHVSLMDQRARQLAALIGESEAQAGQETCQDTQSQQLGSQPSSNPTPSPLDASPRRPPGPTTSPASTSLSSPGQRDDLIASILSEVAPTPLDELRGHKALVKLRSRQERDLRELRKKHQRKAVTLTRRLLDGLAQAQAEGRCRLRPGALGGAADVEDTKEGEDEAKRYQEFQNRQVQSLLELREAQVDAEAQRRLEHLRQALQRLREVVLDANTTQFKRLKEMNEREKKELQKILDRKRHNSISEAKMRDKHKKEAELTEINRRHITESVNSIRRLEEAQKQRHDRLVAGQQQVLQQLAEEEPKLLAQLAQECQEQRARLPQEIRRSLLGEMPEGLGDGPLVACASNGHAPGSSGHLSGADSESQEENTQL

Sequence of Serine/threonine-protein kinase D3 (O94806 whole entry): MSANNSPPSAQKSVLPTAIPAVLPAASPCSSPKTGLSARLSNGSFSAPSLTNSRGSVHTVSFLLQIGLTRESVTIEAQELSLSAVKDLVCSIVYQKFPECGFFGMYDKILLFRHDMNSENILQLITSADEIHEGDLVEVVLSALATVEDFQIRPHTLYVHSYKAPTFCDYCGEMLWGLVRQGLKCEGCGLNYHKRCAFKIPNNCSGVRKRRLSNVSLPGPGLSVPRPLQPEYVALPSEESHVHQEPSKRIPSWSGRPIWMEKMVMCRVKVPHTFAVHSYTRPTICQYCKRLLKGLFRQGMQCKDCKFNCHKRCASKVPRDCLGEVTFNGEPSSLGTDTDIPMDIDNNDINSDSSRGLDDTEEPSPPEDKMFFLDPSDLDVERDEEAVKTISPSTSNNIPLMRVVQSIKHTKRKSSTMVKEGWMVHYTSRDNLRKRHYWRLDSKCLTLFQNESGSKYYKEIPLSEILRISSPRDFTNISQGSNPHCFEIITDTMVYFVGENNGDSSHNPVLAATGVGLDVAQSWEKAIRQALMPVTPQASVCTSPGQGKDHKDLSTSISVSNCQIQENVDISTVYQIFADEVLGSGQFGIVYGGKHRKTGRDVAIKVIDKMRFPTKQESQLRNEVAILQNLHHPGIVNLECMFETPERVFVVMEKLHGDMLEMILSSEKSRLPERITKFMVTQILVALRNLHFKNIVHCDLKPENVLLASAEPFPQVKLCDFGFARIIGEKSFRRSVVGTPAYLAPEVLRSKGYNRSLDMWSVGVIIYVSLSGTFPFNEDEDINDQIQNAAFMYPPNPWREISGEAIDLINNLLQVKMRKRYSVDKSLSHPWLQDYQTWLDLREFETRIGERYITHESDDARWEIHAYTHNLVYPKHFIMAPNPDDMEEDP
Sequence of Cyclin-dependent kinase 7 (P50613 whole entry): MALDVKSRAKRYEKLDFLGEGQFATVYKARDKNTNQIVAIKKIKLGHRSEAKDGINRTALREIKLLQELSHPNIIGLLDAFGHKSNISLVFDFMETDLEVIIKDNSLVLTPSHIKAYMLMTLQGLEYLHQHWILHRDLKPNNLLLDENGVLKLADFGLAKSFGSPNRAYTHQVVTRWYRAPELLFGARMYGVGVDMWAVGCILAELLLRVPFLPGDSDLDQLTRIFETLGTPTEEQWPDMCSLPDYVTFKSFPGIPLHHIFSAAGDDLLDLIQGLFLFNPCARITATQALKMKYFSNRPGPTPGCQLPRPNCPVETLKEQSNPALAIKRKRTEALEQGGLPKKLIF
Sequence of Aurora kinase A (O14965 whole entry): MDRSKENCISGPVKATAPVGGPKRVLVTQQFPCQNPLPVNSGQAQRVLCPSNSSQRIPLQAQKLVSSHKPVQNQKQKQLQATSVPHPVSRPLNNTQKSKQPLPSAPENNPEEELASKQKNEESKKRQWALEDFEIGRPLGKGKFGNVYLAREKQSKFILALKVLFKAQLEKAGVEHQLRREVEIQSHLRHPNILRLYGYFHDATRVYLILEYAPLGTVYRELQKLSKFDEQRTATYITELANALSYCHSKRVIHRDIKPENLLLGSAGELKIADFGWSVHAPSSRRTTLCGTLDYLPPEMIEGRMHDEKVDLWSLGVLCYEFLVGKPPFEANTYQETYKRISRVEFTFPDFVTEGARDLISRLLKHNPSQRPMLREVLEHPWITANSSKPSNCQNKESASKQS
Sequence of SUMO-activating enzyme (Q9UBE0 whole entry): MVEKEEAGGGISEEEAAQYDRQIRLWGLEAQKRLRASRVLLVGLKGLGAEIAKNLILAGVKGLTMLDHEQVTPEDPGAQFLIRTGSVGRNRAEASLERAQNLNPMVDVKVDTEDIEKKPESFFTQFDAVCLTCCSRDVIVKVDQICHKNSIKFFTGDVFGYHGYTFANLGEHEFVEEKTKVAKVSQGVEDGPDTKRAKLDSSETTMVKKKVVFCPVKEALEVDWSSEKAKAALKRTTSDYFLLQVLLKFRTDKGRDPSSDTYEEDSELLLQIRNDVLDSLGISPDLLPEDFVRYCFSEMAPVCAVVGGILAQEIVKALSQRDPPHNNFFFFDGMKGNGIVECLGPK
Sequence of SUMO-activating enzyme (Q9UBT2 whole entry): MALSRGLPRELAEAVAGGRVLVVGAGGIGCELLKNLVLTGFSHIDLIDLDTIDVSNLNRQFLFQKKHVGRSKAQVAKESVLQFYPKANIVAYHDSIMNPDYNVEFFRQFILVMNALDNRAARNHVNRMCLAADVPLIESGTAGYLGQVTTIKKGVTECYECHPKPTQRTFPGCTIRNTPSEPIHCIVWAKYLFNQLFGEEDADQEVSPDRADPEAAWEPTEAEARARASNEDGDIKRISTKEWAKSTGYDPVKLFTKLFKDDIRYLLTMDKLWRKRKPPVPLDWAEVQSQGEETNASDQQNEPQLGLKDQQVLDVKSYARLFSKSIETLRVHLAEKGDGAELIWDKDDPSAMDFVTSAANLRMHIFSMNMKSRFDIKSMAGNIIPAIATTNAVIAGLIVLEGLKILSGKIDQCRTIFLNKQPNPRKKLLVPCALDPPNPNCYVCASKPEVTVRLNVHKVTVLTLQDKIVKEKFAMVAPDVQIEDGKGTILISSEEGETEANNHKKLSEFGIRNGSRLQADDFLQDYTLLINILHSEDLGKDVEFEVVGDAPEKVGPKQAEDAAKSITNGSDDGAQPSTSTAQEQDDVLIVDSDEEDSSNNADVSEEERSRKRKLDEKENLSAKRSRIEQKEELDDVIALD
Sequence of Tyrosine-protein kinase receptor TYRO3 (Q06418 whole entry): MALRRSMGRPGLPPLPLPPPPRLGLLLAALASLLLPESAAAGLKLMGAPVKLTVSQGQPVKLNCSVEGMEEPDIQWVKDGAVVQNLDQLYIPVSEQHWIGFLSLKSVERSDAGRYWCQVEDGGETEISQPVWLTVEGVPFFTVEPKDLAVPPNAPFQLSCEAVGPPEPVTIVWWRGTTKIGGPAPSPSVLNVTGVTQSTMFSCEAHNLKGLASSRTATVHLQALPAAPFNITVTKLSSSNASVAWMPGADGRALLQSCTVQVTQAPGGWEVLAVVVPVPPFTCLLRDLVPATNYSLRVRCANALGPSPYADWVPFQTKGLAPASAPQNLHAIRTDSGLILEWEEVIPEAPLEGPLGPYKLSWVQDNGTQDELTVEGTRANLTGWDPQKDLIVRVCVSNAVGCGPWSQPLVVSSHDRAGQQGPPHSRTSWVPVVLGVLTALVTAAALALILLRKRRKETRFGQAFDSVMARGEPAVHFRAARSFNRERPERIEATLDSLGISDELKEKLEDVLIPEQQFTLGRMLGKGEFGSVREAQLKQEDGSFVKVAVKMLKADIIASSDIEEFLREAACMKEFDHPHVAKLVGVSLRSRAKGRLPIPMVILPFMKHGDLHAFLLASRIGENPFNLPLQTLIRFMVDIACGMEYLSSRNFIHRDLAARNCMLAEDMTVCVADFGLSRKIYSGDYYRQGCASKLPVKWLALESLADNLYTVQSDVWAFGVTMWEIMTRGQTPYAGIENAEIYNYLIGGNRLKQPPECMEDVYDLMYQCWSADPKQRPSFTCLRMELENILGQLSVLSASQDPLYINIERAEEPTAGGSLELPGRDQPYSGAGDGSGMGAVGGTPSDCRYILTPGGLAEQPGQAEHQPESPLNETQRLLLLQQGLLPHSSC
Sequence of Insulin-like growth factor 1 receptor (P08069 31-736 limits assumed): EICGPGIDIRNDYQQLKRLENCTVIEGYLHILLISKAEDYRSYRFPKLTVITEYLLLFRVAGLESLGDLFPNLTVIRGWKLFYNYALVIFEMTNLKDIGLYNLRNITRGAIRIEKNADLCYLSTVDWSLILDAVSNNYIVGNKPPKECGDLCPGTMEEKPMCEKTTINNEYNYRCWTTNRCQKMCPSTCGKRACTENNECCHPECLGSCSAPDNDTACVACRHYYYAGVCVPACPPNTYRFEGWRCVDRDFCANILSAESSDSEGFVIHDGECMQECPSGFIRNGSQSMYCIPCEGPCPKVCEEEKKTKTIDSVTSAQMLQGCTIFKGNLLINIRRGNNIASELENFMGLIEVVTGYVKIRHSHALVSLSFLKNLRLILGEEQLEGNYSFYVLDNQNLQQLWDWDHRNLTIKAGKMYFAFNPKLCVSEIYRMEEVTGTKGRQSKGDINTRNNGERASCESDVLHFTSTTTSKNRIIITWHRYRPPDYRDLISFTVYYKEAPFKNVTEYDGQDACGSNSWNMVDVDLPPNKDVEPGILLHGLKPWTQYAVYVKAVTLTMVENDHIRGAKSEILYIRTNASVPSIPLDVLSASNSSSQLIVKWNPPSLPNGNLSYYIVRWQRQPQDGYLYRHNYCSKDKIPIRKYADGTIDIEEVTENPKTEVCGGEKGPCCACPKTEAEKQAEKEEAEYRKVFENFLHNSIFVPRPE
Sequence of Insulin-like growth factor 1 receptor (P08069 741-1367 limits assumed): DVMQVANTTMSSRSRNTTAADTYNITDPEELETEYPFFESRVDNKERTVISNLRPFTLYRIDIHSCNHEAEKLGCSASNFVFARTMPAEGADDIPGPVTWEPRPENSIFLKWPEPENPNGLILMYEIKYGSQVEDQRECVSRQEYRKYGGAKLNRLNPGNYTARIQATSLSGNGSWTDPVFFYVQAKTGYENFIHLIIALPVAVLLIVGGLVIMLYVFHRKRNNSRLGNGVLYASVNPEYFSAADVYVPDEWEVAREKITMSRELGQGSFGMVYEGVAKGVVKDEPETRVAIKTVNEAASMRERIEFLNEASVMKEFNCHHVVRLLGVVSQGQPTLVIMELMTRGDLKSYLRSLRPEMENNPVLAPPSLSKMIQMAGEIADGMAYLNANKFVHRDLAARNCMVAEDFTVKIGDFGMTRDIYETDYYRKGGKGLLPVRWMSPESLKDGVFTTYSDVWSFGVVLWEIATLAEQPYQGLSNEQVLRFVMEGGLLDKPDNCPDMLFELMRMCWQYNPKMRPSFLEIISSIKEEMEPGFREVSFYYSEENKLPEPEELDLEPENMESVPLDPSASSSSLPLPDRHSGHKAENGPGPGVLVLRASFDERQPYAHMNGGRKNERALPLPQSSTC

Compound: CC(=O)N(C1=C(Cl)C(=O)c2ccccc2C1=O)c1ccc(C(=O)O)cc1
IC50 (SUMO-activating enzyme): 3.77 µM (active)
IC50 [1]: 8.03 µM (active)

Compound: CC1(C)C=C2C(=NN(c3ccccc3)C(N)=C2C#N)CO1
IC50 (Caspase-3): 1.09 µM (active)

Ki [2]: > 3.16 µM (inactive)
Ki [3]: > 6.31 µM (inactive)
Ki [4]: 0.1 µM (active)
Ki [5]: > 3.16 µM (inactive)
Ki (Aurora kinase A): > 1.58 µM (inactive)
Ki [6]: > 3.98 µM (inactive)
Ki [7]: > 3.16 µM (inactive)
Ki [8]: > 3.98 µM (inactive)
Ki [9]: > 2.51 µM (inactive)
Ki [10]: 2.51 µM (active)
Ki [11]: 0.158 µM (active)
Compound: Cc1ccc(-c2cc3nc(Br)cnc3[nH]2)cc1

Compound: O=C1C=C(O)c2c(O)cc(O)c(O)c2C1=O
IC50 [12]: > 122 µM (inactive)
